The values that follow come from patent publication US20230212164A1, “ANNULATED 2-AMINO-3-CYANO THIOPHENES AND DERIVATIVES FOR THE TREATMENT OF CANCER” (BOEHRINGER INGELHEIM INTERNATIONAL GMBH, priority 2020, published 2023).

Each structure is given as a SMILES string.

One may read the IC50 as the concentration that inhibits the measured activity by half.

T1 sequence (P01116 1-169 isoform P01116-2 G12C/C51S/C80L/C118S): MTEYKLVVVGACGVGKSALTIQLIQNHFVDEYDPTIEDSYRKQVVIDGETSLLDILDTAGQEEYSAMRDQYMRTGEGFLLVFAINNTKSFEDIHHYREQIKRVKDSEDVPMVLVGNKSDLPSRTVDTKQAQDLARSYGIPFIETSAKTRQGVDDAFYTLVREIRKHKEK

The first assay addresses T1, protein-protein interaction between SOS1 and KRAS G12C (Homo sapiens, UniProt P01116, C118S/C51S/C80L/G12C).
T1 construct: His6 (N)
The experiment in a line: KRAS::SOS1 AlphaScreen binding assay. The settings on record: Table 36.
In turn, `C=CC(=O)N1CCN(c2cc(-c3noc([C@@]4(C)CCCc5sc(N)c(C#N)c54)n3)nc(O[C@@H](C)[C@@H]3CC[C@H](C)N3C)n2)CC1` [Ia-137] came in with an IC50 of 1.8 nM.

Consider `C=CC(=O)N1C[C@H](Oc2cc(O[C@@H](C)[C@@H]3CCCN3C)nc(-c3noc([C@@]4(C)CCCc5sc(N)c(C#N)c54)n3)c2)[C@H]1C` [Ia-85], for which the IC50 stood at 1.6 nM.

As to `C=CC(=O)N1CC(Oc2cc(O[C@@H](C)[C@@H]3CCCN3C)nc(-c3noc([C@@]4(C)CCCc5sc(N)c(C#N)c54)n3)c2)C1` [Ia-3], the IC50 was determined as 1.2 nM.

Regarding `C=CC(=O)N1CCC(Oc2cc(-c3noc([C@]4(C)CCCc5sc(N)c(C#N)c54)n3)nc(N3CCN(C)C[C@@H]3C)c2)CC1` [Ia-80], the IC50 was determined as 507 nM.

On to `C=CC(=O)N1CCCN(c2cc(-c3noc([C@@]4(C)CCCc5sc(N)c(C#N)c54)n3)nc(O[C@@H](C)[C@@H]3CCCN3C)n2)[C@@H](C)C1` [Ia-58], for which the IC50 worked out at 319 nM.

For `C=CC(=O)N1CC[C@H](Oc2cc(O[C@@H](C)[C@@H]3CCCN3C)nc(-c3noc([C@@]4(C)CCCc5sc(N)c(C#N)c54)n3)c2)C1` [Ia-82], the IC50 worked out at 2 nM.

The assay is the same for the next values; noted with them: Table 37.
`C/C=C/C(=O)N1CCN(c2cc(-c3noc([C@@]4(C)CCCc5sc(N)c(C#N)c54)n3)nc(O[C@@H](C)[C@@H]3CCCN3C)n2)CC12CC2` [Ia-163] showed a half-maximal inhibitory concentration (IC50) of 22 nM.

`COC/C=C/C(=O)N1CCC(Oc2cc(O[C@@H](C)[C@@H]3CCCN3C)nc(-c3noc([C@@]4(C)CCCc5sc(N)c(C#N)c54)n3)c2)CC1` [Ia-159] came in with an IC50 of 5 nM.

In turn, `COC/C=C/C(=O)N1CCN(c2cc(-c3noc([C@@]4(C)CCCc5sc(N)c(C#N)c54)n3)nc(O[C@@H](C)[C@@H]3CCCN3C)n2)CC12CC2` [Ia-160] came in with a half-inhibitory concentration (IC50) of 11 nM.

`COC/C=C\C(=O)N1CCN(c2cc(O[C@@H](C)[C@@H]3CCCN3C)nc(-c3noc([C@@]4(C)CCCc5sc(N)c(C#N)c54)n3)n2)CC12CC2` [Ia-161] had a half-maximal inhibitory concentration (IC50) of 21 nM.

The assay is the same for the next values; noted with them: Table 38.
The compound `CC#CC(=O)N1CCN(c2cc(-c3noc([C@@]4(C)CCCc5sc(N)c(C#N)c54)n3)nc(O[C@@H](C)[C@@H]3CCCN3C)n2)CC12CC2` [Ia-166] registered an IC50 of 3 nM.

The same assay, now with this note: Table 39.
On to `C[C@H](Oc1nc(-c2noc([C@@]3(C)CCCc4sc(N)c(C#N)c43)n2)cc(N2CCN(C/C=C/C(=O)N(C)C)CC2)n1)[C@@H]1CCCN1C` [Ia-169], for which the half-inhibitory concentration (IC50) is 40 nM.

The target in the next assay is KRASG12-dependent Ba/F3 cells (Homo sapiens, UniProt P01116, G12C, cells depend on it). The experiment in a line: Ba/F3 cell model proliferation assay (AlamarBlue, 72 h). The format is cell-based. The following applies: Ba/F3 cells transduced with KRASG12C, read-out: IC50 Ba/F3 KRASG12C.
KRASG12-dependent Ba/F3 cells, sequence (P01116 whole entry G12C): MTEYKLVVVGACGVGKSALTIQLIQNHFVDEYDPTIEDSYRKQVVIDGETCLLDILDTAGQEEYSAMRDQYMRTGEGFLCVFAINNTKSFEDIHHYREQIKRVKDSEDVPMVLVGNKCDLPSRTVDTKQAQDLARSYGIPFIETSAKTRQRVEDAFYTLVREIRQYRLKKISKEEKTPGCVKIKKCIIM
`C/C=C/C(=O)N1CCN(c2cc(-c3noc([C@@]4(C)CCCc5sc(N)c(C#N)c54)n3)nc(O[C@@H](C)[C@@H]3CCCN3C)n2)CC12CC2` [Ia-163]: the GI50 came to 431 nM.

As to `COC/C=C/C(=O)N1CCC(Oc2cc(O[C@@H](C)[C@@H]3CCCN3C)nc(-c3noc([C@@]4(C)CCCc5sc(N)c(C#N)c54)n3)c2)CC1` [Ia-159], the GI50 is 16.2 nM.

For the compound `C[C@H](Oc1nc(-c2noc([C@@]3(C)CCCc4sc(N)c(C#N)c43)n2)cc(N2CCN(C/C=C/C(=O)N(C)C)CC2)n1)[C@@H]1CCCN1C` [Ia-169], the GI50 was determined as 7730 nM.

As to `COC/C=C/C(=O)N1CCN(c2cc(-c3noc([C@@]4(C)CCCc5sc(N)c(C#N)c54)n3)nc(O[C@@H](C)[C@@H]3CCCN3C)n2)CC12CC2` [Ia-160], the GI50 is 116 nM.

Consider `C=CC(=O)N1CCN(c2cc(-c3noc([C@@]4(C)CCCc5sc(N)c(C#N)c54)n3)nc(O[C@@H](C)[C@@H]3CC[C@H](C)N3C)n2)CC1` [Ia-137], for which the GI50 is 0.5 nM.

Regarding `CC#CC(=O)N1CCN(c2cc(-c3noc([C@@]4(C)CCCc5sc(N)c(C#N)c54)n3)nc(O[C@@H](C)[C@@H]3CCCN3C)n2)CC12CC2` [Ia-166], the GI50 was 13.4 nM.

For `C=CC(=O)N1C[C@H](Oc2cc(O[C@@H](C)[C@@H]3CCCN3C)nc(-c3noc([C@@]4(C)CCCc5sc(N)c(C#N)c54)n3)c2)[C@H]1C` [Ia-85], the GI50 worked out at 0.7 nM.

`C=CC(=O)N1CC(Oc2cc(O[C@@H](C)[C@@H]3CCCN3C)nc(-c3noc([C@@]4(C)CCCc5sc(N)c(C#N)c54)n3)c2)C1` [Ia-3]: the GI50 stood at 0.3 nM.

Regarding `C=CC(=O)N1CCC(Oc2cc(-c3noc([C@]4(C)CCCc5sc(N)c(C#N)c54)n3)nc(N3CCN(C)C[C@@H]3C)c2)CC1` [Ia-80], the GI50 worked out at 559 nM.

Take `C=CC(=O)N1CCCN(c2cc(-c3noc([C@@]4(C)CCCc5sc(N)c(C#N)c54)n3)nc(O[C@@H](C)[C@@H]3CCCN3C)n2)[C@@H](C)C1` [Ia-58]: the GI50 turned out to be 3480 nM.

With `COC/C=C\C(=O)N1CCN(c2cc(O[C@@H](C)[C@@H]3CCCN3C)nc(-c3noc([C@@]4(C)CCCc5sc(N)c(C#N)c54)n3)n2)CC12CC2` [Ia-161], the GI50 was found to be 162 nM.

As for `C=CC(=O)N1CC[C@H](Oc2cc(O[C@@H](C)[C@@H]3CCCN3C)nc(-c3noc([C@@]4(C)CCCc5sc(N)c(C#N)c54)n3)c2)C1` [Ia-82], the GI50 is 17.3 nM.

A further assay deals with NCI-H358 cells. The experiment in a line: NCI-H358 CTG proliferation assay (120 h) (NSCLC). Type of assay: cell-based. The settings on record: Homo sapiens. The protocol: NCI-H358 cells (ATCC No. CRL-5807) were dispensed into white bottom opaque 96 well plates (Perkin Elmer cat no. 5680) at a density of 2000 cells per well in 100 μL RPMI-1640 ATCC-Formulation (Gibco #A10491)+10% FCS. Cells were incubated overnight at 37° C. in a humidified tissue culture incubator at 5% CO2. Compounds (10 mM stock in DMSO) were added at logarithmic dose series using the HP Digital Dispenser D300 (Tecan), normalizing for added DMSO. For the T0 time point measurement, untreated cells were analyzed at the time of compound addition. Plates were incubated for 120 hours, and cell viability was measured using CellTiter-Glo luminescent cell viability reagent (Promega product code G7570). Viability (stated as percent of control) is defined as relative luminescence units RLU of each well divided by the RLU of cells in DMSO controls. IC50 values were determined from viability measurements by non-linear regression using a four parameter model.
Consider `C=CC(=O)N1CCN(c2nc(=O)n(-c3c(C)ccnc3C(C)C)c3nc(-c4c(O)cccc4F)c(F)cc23)[C@@H](C)C1` [sotorasib, reference compound], for which the IC50 was determined as 21 nM.

Another assay has as its system pERK (Thr202/Tyr204) in NCI-H358_Cas9_SOS2 (SOS2 knocked). As to the kind of experiment: ERK phosphorylation assay 2 (AlphaLISA SureFire Ultra p-ERK1/2). The settings on record: read-out: IC50 H358 pERK, ERK phosphorylation assay 2 (values marked with *). (Bead proximity is the source of the signal in Alpha formats.)
Turning to `C/C=C/C(=O)N1CCN(c2cc(-c3noc([C@@]4(C)CCCc5sc(N)c(C#N)c54)n3)nc(O[C@@H](C)[C@@H]3CCCN3C)n2)CC12CC2` [Ia-163], the 50% inhibitory concentration (IC50) worked out at 81.3 nM.

Take `COC/C=C/C(=O)N1CCC(Oc2cc(O[C@@H](C)[C@@H]3CCCN3C)nc(-c3noc([C@@]4(C)CCCc5sc(N)c(C#N)c54)n3)c2)CC1` [Ia-159]: the IC50 turned out to be 12.4 nM.

As to `C[C@H](Oc1nc(-c2noc([C@@]3(C)CCCc4sc(N)c(C#N)c43)n2)cc(N2CCN(C/C=C/C(=O)N(C)C)CC2)n1)[C@@H]1CCCN1C` [Ia-169], the half-inhibitory concentration (IC50) amounted to 1840 nM.

As for `COC/C=C/C(=O)N1CCN(c2cc(-c3noc([C@@]4(C)CCCc5sc(N)c(C#N)c54)n3)nc(O[C@@H](C)[C@@H]3CCCN3C)n2)CC12CC2` [Ia-160], the IC50 stood at 25.3 nM.

As for `C=CC(=O)N1CCN(c2cc(-c3noc([C@@]4(C)CCCc5sc(N)c(C#N)c54)n3)nc(O[C@@H](C)[C@@H]3CC[C@H](C)N3C)n2)CC1` [Ia-137], the IC50 came to 0.7 nM.

With `CC#CC(=O)N1CCN(c2cc(-c3noc([C@@]4(C)CCCc5sc(N)c(C#N)c54)n3)nc(O[C@@H](C)[C@@H]3CCCN3C)n2)CC12CC2` [Ia-166], the concentration for half-maximal inhibition (IC50) worked out at 4.2 nM.

Consider `C=CC(=O)N1C[C@H](Oc2cc(O[C@@H](C)[C@@H]3CCCN3C)nc(-c3noc([C@@]4(C)CCCc5sc(N)c(C#N)c54)n3)c2)[C@H]1C` [Ia-85], for which the IC50 stood at 0.7 nM.

As to `C=CC(=O)N1CC(Oc2cc(O[C@@H](C)[C@@H]3CCCN3C)nc(-c3noc([C@@]4(C)CCCc5sc(N)c(C#N)c54)n3)c2)C1` [Ia-3], the 50% inhibitory concentration (IC50) worked out at 0.5 nM.

As to `C=CC(=O)N1CCC(Oc2cc(-c3noc([C@]4(C)CCCc5sc(N)c(C#N)c54)n3)nc(N3CCN(C)C[C@@H]3C)c2)CC1` [Ia-80], the IC50 is 1150 nM.

As to `C=CC(=O)N1CCCN(c2cc(-c3noc([C@@]4(C)CCCc5sc(N)c(C#N)c54)n3)nc(O[C@@H](C)[C@@H]3CCCN3C)n2)[C@@H](C)C1` [Ia-58], the IC50 was determined as 300 nM.

As for `COC/C=C\C(=O)N1CCN(c2cc(O[C@@H](C)[C@@H]3CCCN3C)nc(-c3noc([C@@]4(C)CCCc5sc(N)c(C#N)c54)n3)n2)CC12CC2` [Ia-161], the 50% inhibitory concentration (IC50) came out at 26.5 nM.

Turning to `C=CC(=O)N1CC[C@H](Oc2cc(O[C@@H](C)[C@@H]3CCCN3C)nc(-c3noc([C@@]4(C)CCCc5sc(N)c(C#N)c54)n3)c2)C1` [Ia-82], the 50% inhibitory concentration (IC50) amounted to 7.7 nM.
